Reference: the NIST ThermoML archive (doi:10.1021/acs.jced.7b00712)
Numbers after ± are expanded uncertainties.

Conditions: Brillouin light scattering

CC(C)CC(C)(C)C [2,2,4-trimethylpentane]
Conditions | speed of sound [m/s]
294.06 K, 100 kPa, Liquid | 1099.7 ± 14
294.37 K, 3000 kPa, Liquid | 1127.4 ± 15
294.65 K, 6000 kPa, Liquid | 1147.6 ± 15
294.84 K, 10000 kPa, Liquid | 1176.1 ± 15
294.97 K, 12000 kPa, Liquid | 1181.7 ± 15
304.03 K, 100 kPa, Liquid | 1058.5 ± 14
304.16 K, 3000 kPa, Liquid | 1088.2 ± 14
304.23 K, 6000 kPa, Liquid | 1109.6 ± 14
304.27 K, 10000 kPa, Liquid | 1136.9 ± 15
304.27 K, 12000 kPa, Liquid | 1147.7 ± 15
313.81 K, 100 kPa, Liquid | 1017.3 ± 13
313.82 K, 10000 kPa, Liquid | 1100.1 ± 14
313.85 K, 12000 kPa, Liquid | 1110.8 ± 14
313.92 K, 3000 kPa, Liquid | 1037.2 ± 14
313.96 K, 6000 kPa, Liquid | 1065.2 ± 14
323.56 K, 100 kPa, Liquid | 978.2 ± 13
323.61 K, 3000 kPa, Liquid | 999.1 ± 13
323.65 K, 6000 kPa, Liquid | 1027.4 ± 13
323.67 K, 10000 kPa, Liquid | 1060.4 ± 14
323.71 K, 12000 kPa, Liquid | 1075.4 ± 14
333.4 K, 12000 kPa, Liquid | 1041.9 ± 14
333.42 K, 100 kPa, Liquid | 938.5 ± 12
333.46 K, 10000 kPa, Liquid | 1028 ± 13
333.48 K, 3000 kPa, Liquid | 968 ± 13
333.5 K, 6000 kPa, Liquid | 996 ± 13
342.88 K, 100 kPa, Liquid | 898 ± 12
343.07 K, 3000 kPa, Liquid | 927.9 ± 12
343.16 K, 6000 kPa, Liquid | 954.8 ± 12
343.21 K, 12000 kPa, Liquid | 1008.5 ± 13
343.22 K, 10000 kPa, Liquid | 990.3 ± 13
352.86 K, 100 kPa, Liquid | 858.9 ± 11
352.89 K, 3000 kPa, Liquid | 891.7 ± 12
352.94 K, 6000 kPa, Liquid | 921.1 ± 12
353.01 K, 10000 kPa, Liquid | 961.7 ± 12
353.04 K, 12000 kPa, Liquid | 975.5 ± 13
363.39 K, 3000 kPa, Liquid | 852.2 ± 11
363.49 K, 6000 kPa, Liquid | 883.5 ± 12
363.54 K, 10000 kPa, Liquid | 925.7 ± 12
363.55 K, 100 kPa, Liquid | 821.9 ± 11
363.58 K, 12000 kPa, Liquid | 943.8 ± 12
373.04 K, 3000 kPa, Liquid | 821.1 ± 11
373.27 K, 6000 kPa, Liquid | 843.9 ± 11
373.41 K, 10000 kPa, Liquid | 888.2 ± 12
373.49 K, 12000 kPa, Liquid | 908.6 ± 12
383.18 K, 3000 kPa, Liquid | 783.2 ± 10
383.8 K, 6000 kPa, Liquid | 813.8 ± 11
384.11 K, 10000 kPa, Liquid | 855.6 ± 11
384.26 K, 12000 kPa, Liquid | 876.5 ± 11
393.83 K, 3000 kPa, Liquid | 742.3 ± 9.7
394 K, 6000 kPa, Liquid | 782.2 ± 10
394.15 K, 10000 kPa, Liquid | 825.8 ± 11
394.19 K, 12000 kPa, Liquid | 848.1 ± 11
402.16 K, 3000 kPa, Liquid | 716.5 ± 9.4
402.48 K, 6000 kPa, Liquid | 750.9 ± 9.8
402.64 K, 10000 kPa, Liquid | 800.2 ± 10
402.78 K, 12000 kPa, Liquid | 819.5 ± 11
412.57 K, 3000 kPa, Liquid | 677.6 ± 8.9
412.84 K, 6000 kPa, Liquid | 719.3 ± 9.4
413.07 K, 10000 kPa, Liquid | 766.7 ± 10
413.22 K, 12000 kPa, Liquid | 791.3 ± 10
423.95 K, 3000 kPa, Liquid | 636.8 ± 8.4
424.32 K, 6000 kPa, Liquid | 678.1 ± 8.9
424.49 K, 10000 kPa, Liquid | 732.1 ± 9.6
424.59 K, 12000 kPa, Liquid | 756.7 ± 9.9
434.51 K, 3000 kPa, Liquid | 602.6 ± 7.9
434.94 K, 6000 kPa, Liquid | 647.4 ± 8.5
435.26 K, 10000 kPa, Liquid | 701 ± 9.2
435.36 K, 12000 kPa, Liquid | 726.5 ± 9.5
443.7 K, 3000 kPa, Liquid | 569.7 ± 7.5
444 K, 6000 kPa, Liquid | 619.6 ± 8.2
444.22 K, 10000 kPa, Liquid | 677.1 ± 8.9
444.36 K, 12000 kPa, Liquid | 700.3 ± 9.2
452.94 K, 3000 kPa, Liquid | 538.4 ± 7.1
453.22 K, 6000 kPa, Liquid | 588.3 ± 7.8
454.37 K, 10000 kPa, Liquid | 648.8 ± 8.5
455.24 K, 12000 kPa, Liquid | 671.1 ± 8.8
462.54 K, 3000 kPa, Liquid | 502.1 ± 6.7
463.04 K, 6000 kPa, Liquid | 558.9 ± 7.4
463.43 K, 10000 kPa, Liquid | 622.7 ± 8.2
463.72 K, 12000 kPa, Liquid | 651.6 ± 8.6
472.45 K, 3000 kPa, Liquid | 464.2 ± 6.3
472.86 K, 6000 kPa, Liquid | 530.7 ± 7.1
473.22 K, 10000 kPa, Liquid | 596.3 ± 7.9
473.48 K, 12000 kPa, Liquid | 627.7 ± 8.3
483.15 K, 3000 kPa, Liquid | 423.5 ± 5.9
483.63 K, 6000 kPa, Liquid | 496.7 ± 6.7
484.05 K, 10000 kPa, Liquid | 569.9 ± 7.5
484.3 K, 12000 kPa, Liquid | 598.4 ± 7.9
493.12 K, 3000 kPa, Liquid | 386.4 ± 5.5
493.56 K, 6000 kPa, Liquid | 464.9 ± 6.3
494.09 K, 10000 kPa, Liquid | 542.2 ± 7.2
494.42 K, 12000 kPa, Liquid | 576.5 ± 7.6
502.8 K, 3000 kPa, Liquid | 350.1 ± 5.1
503.17 K, 6000 kPa, Liquid | 435.4 ± 6
503.79 K, 10000 kPa, Liquid | 516.1 ± 6.9
504.09 K, 12000 kPa, Liquid | 550.4 ± 7.3
512.41 K, 3000 kPa, Liquid | 311.4 ± 4.8
513.04 K, 6000 kPa, Liquid | 404 ± 5.7
513.78 K, 10000 kPa, Liquid | 491.8 ± 6.6
514.01 K, 12000 kPa, Liquid | 526.6 ± 7
523.31 K, 3000 kPa, Liquid | 264.5 ± 4.5
523.97 K, 6000 kPa, Liquid | 371.4 ± 5.4
524.59 K, 10000 kPa, Liquid | 463 ± 6.3
524.7 K, 12000 kPa, Liquid | 501.3 ± 6.7
543.28 K, 3000 kPa, Fluid (supercritical or subcritical phases) | 159 ± 6.4
543.47 K, 4000 kPa, Fluid (supercritical or subcritical phases) | 233.1 ± 5.8
543.63 K, 5000 kPa, Fluid (supercritical or subcritical phases) | 282.2 ± 4.9
